Reference: patent US10087436B2, “Electrophysiologically mature cardiomyocytes and methods for making same” (The Regents of the University of California, priority 2014, dated 2018)

System: Ad-Kir2.1-silenced ventricular hESC-CMs
Assay: Addition of the IK1 blocker Ba2+ to Ad-Kir2.1-silenced ventricular hESC-CMs (patch-clamp)
Format: cell-based, human
Settings: 200 μM Ba2+
Method: HESC- and hiPSC-CMs were dissociated into single cells with 1 mg/ml collagenase II and plated on 0.1% gelatin-coated glass coverslips. Electrophysiological experiments were performed using whole-cell patch-clamp technique with an Axopatch 200B amplifier and the pClamp9.2 software (Axon Instruments Inc., Foster City, Calif.). Pipette solution was consisted of (mM): 110 K^+ aspartate, 20 KCl, 1 MgCl2, 0.1 Na-GTP, 5 Mg-ATP, 5 Na2-phospocreatine, 1 EGTA and 10 HEPES, with pH of 7.3. The external Tyrode's solution consisted of (mM): 140 NaCl, 5 KCl, 1 CaCl2, 1 MgCl2, 10 glucose, and 10 HEPES with pH of 7.4. Voltage- and current-clamp recordings were performed at 37° C. within 24 to 48 hours after adenovirus transduction. ESC-CMs were categorized into pacemaker, atrial or ventricular phenotypes based on the maximum diastolic potential (MDP), maximum rate of rise of the AP and AP duration (APD). […] Atrial cells with a triangular AP profile have a faster rate of rise than pacemaker cells, more hyperpolarized MDP or resting membrane potential (RMP), and intermediate APD. […] Different protocols as given in insets were employed to elicit the corresponding currents. […] All blockers were purchased from Sigma.

With `[Ba+2]` [Ba^2+] the “firing phenotype upon addition of Ba2+” value was “spontaneously fired APs”.
